Here are results for one compound from patent US20230092679A1, “MCL-1 INHIBITOR ANTIBODY-DRUG CONJUGATES AND METHODS OF USE” (NOVARTIS AG, priority 2019, published 2023).

Experiment [1] deals with KMS21 BM cells. In words: Cell viability CTG assay, anti-CD46-Mcl-1 ADC (Example 14). Format: cell-based. The following applies: 72h. The protocol:
KMS21 BM cells were cultivated in RPM11640 supplemented with 10% heat inactivated fetal bovine serum, penicillin (100 IU/ml), streptomycin (100 μg/ml) and L-glutamine (2 mM), at 37° C. in a humidified atmosphere containing 5% CO2. KMS21 BM cells were seeded in 96 microwell plates and exposed to the ADCs for 72h (3.16 fold serially diluted; 9 concentrations each, triplicates). […] All the conditions were tested in triplicates. Luminescence was quantified on a multipurpose plate reader. IC50s (Table 33) were calculated using standard four-parametric curve fitting. […] Each experiment was performed at least twice, with results being reproducible.

Experiment [2] relates to KMS21 BM cells. In words: CTG cell viability assay, KMS21 BM cells. The following applies: FIG. 18. The format is cell-based. The protocol: Cell viability may also be measured, e.g., by quantifying ATP, an indicator of metabolically active cells. In some embodiments, in vitro potency and/or cell viability of prepared ADCs or Mcl-1 inhibitor compounds may be assessed using a CellTiter-Glo® (CTG) cell viability assay, as described in the examples provided herein. In this assay, in some embodiments, the single reagent (CellTiter-Glo® Reagent) is added directly to cells cultured in serum-supplemented medium. The addition of reagent results in cell lysis and generation of a luminescent signal proportional to the amount of ATP present. The amount of ATP is directly proportional to the number of cells present in culture

On to `COc1ccccc1-c1nccc(COc2ccccc2C[C@@H](Oc2ncnc3sc(-c4ccc(F)cc4)c(-c4ccc(OCCN5CCN(C)CC5)c(Cl)c4C)c23)C(=O)O)n1` [C1, (2R)-2-[(5Sa)-5-[3-chloro-2-methyl-4-[2-(4-methylpiperazin-1-yl)ethoxy]phenyl]-6-(4-fluorophenyl)thieno[2,3-d]pyrimidin-4-yl]oxy-3-[2-[[2-(2-methoxyphenyl)pyrimidin-4-yl]methoxy]phenyl]propanoic acid], for which the “viability of KMS21 BM cells in CTG assay, in words” value with KMS21 BM cells [1] (FIG. 18) was “dose dependent decrease in the viability”. Further, in the experiment with KMS21 BM cells [1] (KMS-21BM, KMS21BM cell line, CTG), the midpoint of inhibition, the IC50, lay at 2.31 nM. Moreover, the “viability of KMS21 BM cells” value with KMS21 BM cells [2] was “dose dependent decrease in the viability”.

The term IC50 denotes the concentration that gives 50% inhibition. High values mean weaker potency in that assay, low ones greater potency in that assay.
